# Tests used:
# Assay type in all cases: in vivo
# Reticulitermes speratus [1] = test: Test Example 9: treated filter paper in acrylic cup, termite mortality 5 and 20 days later; conditions: 1000 ppm
# Procedure: A filter paper having a diameter of 80 mm was placed in a cylindrical cup made of acrylic resin having a diameter of 80 mm and a height of 60 mm (i.e. a cup having a hole with a diameter of 10 mm formed in the bottom and having hard plaster (Dental Stone) set at the bottom in a thickness of 10 mm), and 1 ml of a solution containing a sample compound in a predetermined concentration, was dropped thereon. Then, ten termite workers and one termite soldier (Reticulitermes speratus) were released thereon. The cup was placed in a container having wet cotton laid over the bottom, and the container was maintained at room temperature of 25° C., and 5 days later and 20 days later, the mortality of termites in the cup was examined.
# Reticulitermes speratus [2] = test: Test Example 16: pulp (KIMUTAORU) poison bait, termite mortality after 18 days; conditions: pulp (KIMUTAORU) bait 0.1%
# Source text: (§1) Fresh pulp (2 cm×2 cm×0.1 cm) was immersed in a methanol solution of a sample compound. Then, it was dried to obtain a fresh pulp poison bait chemical containing 0.1% of the sample compound. This poison bait chemical was placed in a cylindrical cup made of acrylic resin (i.e. a cup having a hole with a diameter of 10 mm formed in the bottom and having hard plaster (Dental Stone) set at the bottom in a thickness of 10 mm), and 20 termite workers (Reticulitermes speratus) were released thereon. The cup was placed in a container having wet cotton laid over the bottom, and the container was maintained at room temperature of 25° C. for 18 days, whereupon the number of dead termites in the cup was examined, and the mortality was calculated.
# A test was carried out in the same manner as the above Test Example 15 except that fresh pulp was changed to pulp (KIMUTAORU, tradename, manufactured by CRECIA Co.).
# Coptotermes formosanus [3] = test: Test Example 24: treated filter paper in Petri dish, termite mortality on 21st or 28th day; conditions: 21st day
# Procedure: (§2) Mortality (%)=(Number of dead termite workers/15 termite workers)×100
# (§3) Further, by the Colby's formula, the theoretical value (%) of mortality can be calculated. In a case where the actual mortality (%) is higher than the theoretical value (%), it can be said that the composition of the present invention has a synergistic effect for controlling the house insect pest.
# A filter paper having a diameter of 80 mm was placed in a plastic Petri dish, and 1 ml of a pesticide solution having a predetermined concentration was dropped thereon, whereupon 10 termite workers (Coptotermes formosanus) were released, and a cover was put on the Petri dish. This plastic Petri dish was put in a container having wet cotton laid over the bottom and maintained at room temperature of 25° C. On 21 or 28th day after the treatment, the number of dead termites in the Petri dish was examined, and the mortality was calculated in the same manner as Test Example 1.
# Reticulitermes speratus [4] = test: Test Example 15: fresh pulp poison bait, termite mortality after 18 days; conditions: fresh pulp bait 0.1%
# Source text: as §1
# Reticulitermes speratus [5] = test: Test Example 4: treated filter paper in Petri dish, termite mortality after 25 days
# Procedure: as §2, §3
# (§4) A filter paper having a diameter of 80 mm was placed in a plastic Petri dish, and 1 ml of a pesticide solution having a predetermined concentration, was dropped thereon. After the treatment, the solvent was sufficiently evaporated, and then, 1 ml of distilled water was impregnated to the treated filter paper, whereupon 10 termite workers (Reticulitermes speratus) were released. The plastic Petri dish was placed in a container having wet cotton laid over the bottom, and the container was maintained at 25° C. for 25 days, whereupon the number of dead termites in the Petri dish was examined, and the mortality was calculated in the same manner as in Test Example 1.
# Coptotermes formosanus [6] = test: Test Example 20: treated sandy soil, termite mortality and abnormal ratio with time
# Procedure: Sandy soil passed through a sieve of 20 mesh, was dried at a temperature of 60° C. to a constant weight, and 4 g of the soil thus obtained, was packed into a cup having a diameter of 60 mm. 1 ml of a pesticide solution adjusted to a predetermined concentration was added and thoroughly mixed, whereupon 15 termite workers (Coptotermes formosanus) were leased. The cup was placed in a container having wet cotton laid over the bottom, and the container was maintained at room temperature of 25° C., whereby the number of dead termites in the cup was examined as the time passed, and the mortality was calculated.
# Reticulitermes speratus [7] = test: Test Example 3: treated filter paper in Petri dish, termite mortality after 37 days
# Procedure: as §2, §3
# as §4, with “for 37” for “for 25”
# Reticulitermes speratus [8] = test: Test Example 21: treated sandy soil with weather resistance operation, termite mortality; conditions: 1000 ppm
# Procedure: Sandy soil passed through a sieve of 20 mesh was dried at a temperature of 60° C. to a constant weight, and 12 g of the soil thus obtained, was packed into a cup having a diameter of 60 mm. 3 ml of a pesticide solution adjusted to a predetermined concentration, was added and sufficiently mixed, whereupon it was maintained in a constant temperature chamber of 40° C. for 95 days to carry out the weather resistance operation. After the weather resistance operation, 10 termite workers (Reticulitermes speratus) were released on this test soil. The cup was placed in a container having wet cotton laid over the bottom, and the container was maintained at room temperature of 25° C. 2 Days later and 6 days later after releasing the termites, the number of dead termites in the cup was examined, and the mortality was calculated.
# Priplaneta americana = test: Test Example 12: mouse feed poison bait, mortality with time; conditions: bait 1%
# Procedure: 1 g of feeding stuff for mice was treated with 0.5 ml of an acetone solution containing 10 mg of a sample compound and put in a constant temperature chamber at 40° C. for 20 hours to sufficiently evaporate acetone, whereby a poison bait chemical containing 1% of the sample compound was prepared. Then, this poison bait chemical was put into a cup together with a wet cotton, and 10 […] (Priplaneta americana) were released and kept at 25° C. in a breeding room, whereby the mortality was examined as the time passed.
# [9] = 1000 ppm solution, 4 Days later
# [10] = weather resistance operation Negative, 2 Days later
# [11] = weather resistance operation Positive (40° C. for 95 days), 2 Days later
smiles,measurement,setting,value
"CC(=NN=C(Cc1ccc(C(F)(F)F)cc1)c1ccc(F)cc1)N(C)C [Compound No. II-2, [4′-fluoro-2-(4-trifluoromethylphenyl)acetophenone]N′-[1-(dimethylamino)ethylidene]hydrazone]",Mortality,Reticulitermes speratus [1]; 5 Days later,100%
same,Mortality,Reticulitermes speratus [1]; 20 Days later,100%
same,Mortality,Reticulitermes speratus [2],100%
same,Mortality,Coptotermes formosanus [3]; II-2 5 ppm alone,0%
same,Mortality,Coptotermes formosanus [3]; II-2 10 ppm alone,20%
same,Mortality,Coptotermes formosanus [3]; II-2 20 ppm alone,60%
same,Mortality,Reticulitermes speratus [4],100%
same,Mortality,Reticulitermes speratus [5]; II-2 5 ppm alone,0%
same,Mortality,Reticulitermes speratus [5]; II-2 10 ppm alone,10%
same,Mortality,"Coptotermes formosanus [6]; 250 ppm solution, 1 Day later",0%
same,Mortality,"Coptotermes formosanus [6]; 250 ppm solution, 4 Days later",0%
same,abnormal ratio,"Coptotermes formosanus [6]; 250 ppm solution, 4 Days later",7%
same,Mortality,"Coptotermes formosanus [6]; 250 ppm solution, 11 Days later",100%
same,Mortality,"Coptotermes formosanus [6]; 1000 ppm solution, 1 Day later",0%
same,Mortality,Coptotermes formosanus [6]; [9],73%
same,abnormal ratio,Coptotermes formosanus [6]; [9],27%
same,Mortality,"Coptotermes formosanus [6]; 1000 ppm solution, 11 Days later",100%
same,Mortality,"Coptotermes formosanus [6]; 4000 ppm solution, 1 Day later",0%
same,abnormal ratio,"Coptotermes formosanus [6]; 4000 ppm solution, 1 Day later",100%
same,Mortality,"Coptotermes formosanus [6]; 4000 ppm solution, 4 Days later",100%
same,Mortality,"Coptotermes formosanus [6]; 4000 ppm solution, 11 Days later",100%
same,Mortality,Reticulitermes speratus [7]; II-2 5 ppm alone,10%
same,Mortality,Reticulitermes speratus [7]; II-2 10 ppm alone,20%
same,Mortality,Reticulitermes speratus [8]; [10],50 (50) %
same,abnormal ratio,Reticulitermes speratus [8]; [10],50 (50) %
same,Mortality,"Reticulitermes speratus [8]; weather resistance operation Negative, 6 Days later",100%
same,Mortality,Reticulitermes speratus [8]; [11],10%
same,abnormal ratio,Reticulitermes speratus [8]; [11],15%
same,Mortality,"Reticulitermes speratus [8]; weather resistance operation Positive (40° C. for 95 days), 6 Days later",95%
same,Mortality,Priplaneta americana; 1 Day later,0%
same,Mortality,Priplaneta americana; 8 Days later,0%
same,Mortality,Priplaneta americana; 48 Days later,30%
